# From US5366726A (priority 1992, dated 1994)
# Key:
# [1] = system: Pneumocystis carinii; conditions: in vivo; cited from earlier work
# [2] = TMP-SMX oral or parenteral; pentamidine isethionate parenteral; cited from earlier work
# [3] = system: Pneumocystis carinii; assay: Example 8: randomized clinical trial, prevention of PCP; assay type: in vivo, human; conditions: AZT use
# [4] = system: Pneumocystis carinii; conditions: human, in vivo; cited from earlier work
compound,measurement,setting,value
"NCCC[C@](N)(C(=O)O)C(F)F [DFMO, α-difluoromethylornithine]",efficacy in rat PCP model,[1],not efficacious
N=C(N)c1ccc(OCCCCCOc2ccc(C(=N)N)cc2)cc1 [pentamidine isethionate],patients developing severe toxicity requiring discontinuation,[2],approximately 50%
Cc1cn([C@H]2C[C@H](N=[N+]=[N-])[C@@H](CO)O2)c(=O)[nH]c1=O [zidovudine],"independent reduction of PCP risk, Cox models",[3],two-fold
COc1cc(NCc2ccc3nc(N)nc(N)c3c2C)cc(OC)c1OC [trimetrexate],relapse rates within one month,[4],high
